Tests used:
[1] = system: Alternaria solani; assay: Alternaria solani / tomato / leaf disc (early blight); assay type: in vivo; details: foliar, tomato leaf disks cv. Baby, inoculated 2 days after application, assessed 5-7 days after application, read-out: control of Alternaria solani (percent disease control compared to untreated)
Protocol: Example B1: Alternaria solani/Tomato/Leaf Disc (Early Blight) Tomato leaf disks cv. Baby are placed on agar in multiwell plates (24-well format) and sprayed with the formulated test compound diluted in water. The leaf disks are inoculated with a spore suspension of the fungus 2 days after application. The inoculated leaf disks are incubated at 23° C./21° C. […] […]-185.

[2] = system: Glomerella lagenarium (Colletotrichum lagenarium); assay: Glomerella lagenarium (Colletotrichum lagenarium) / liquid culture (anthracnose); assay type: cell-based; details: Colletotrichum orbiculare, PDB potato dextrose broth, 24° C., 3-4 days after application, read-out: control of Glomerella lagenarium (inhibition of growth, photometric)
How it was run: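 Conidia from cryogenic storage suspended in potato dextrose broth and added to DMSO compound solution in plates. Incubated at 24° C; growth inhibition read photometrically 3-4 days after application.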

[3] = system: Blumeria graminis f. sp. tritici (Erysiphe graminis f. sp. tritici); assay: Blumeria graminis f. sp. tritici / wheat / leaf disc preventative (powdery mildew on wheat); assay type: in vivo; details: foliar, wheat leaf segments cv. Kanzler, inoculated 1 day after application, assessed 6-8 days after application, read-out: control of Blumeria graminis f. sp. tritici (percent disease control compared to untreated)
Description: Example B4: Blumeria graminis f. sp. tritici (Erysiphe graminis f. sp. tritici)/Wheat/Leaf Disc Preventative (Powdery Mildew on Wheat) Wheat leaf segments cv. Kanzler are placed on agar in a multiwell plate (24-well format) and sprayed with the formulated test compound diluted in water. The leaf disks are inoculated by shaking powdery mildew infected plants above the test plates 1 day after application. […] […]-192.

[4] = system: Monographella nivalis (Microdochium nivale); assay: Monographella nivalis (Microdochium nivale) / liquid culture (foot rot cereals); assay type: cell-based; details: PDB potato dextrose broth, 24° C., 4-5 days after application, read-out: control of Monographella nivalis (inhibition of growth, photometric)
How it was run: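 Cryostored M. nivalis conidia mixed into potato dextrose broth and added to 96-well plates holding test compound in DMSO. Incubated at 24° C; growth inhibition read photometrically 4-5 days after application.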

[5] = system: Puccinia recondita f. sp. tritici; assay: Puccinia recondita f. sp. tritici / wheat / leaf disc curative (brown rust); assay type: in vivo; details: foliar, wheat leaf segments cv. Kanzler, compound applied 1 day after inoculation, assessed 6-8 days after application, read-out: control of Puccinia recondita f. sp. tritici, curative (percent disease control compared to untreated)
Protocol: Example B10: Puccinia recondita f. sp. tritici/Wheat/Leaf Disc Curative (Brown Rust) Wheat leaf segments cv. Kanzler are placed on agar in multiwell plates (24-well format). The leaf segments are inoculated with a spore suspension of the fungus. Plates are stored in darkness at 19° C. and 75% rh. The formulated test compound diluted in water is applied 1 day after inoculation. […] […]-185.

[6] = system: Puccinia recondita f. sp. tritici; assay: Puccinia recondita f. sp. tritici / wheat / leaf disc preventative (brown rust); assay type: in vivo; details: foliar, wheat leaf segments cv. Kanzler, inoculated 1 day after application, assessed 7-9 days after application, read-out: control of Puccinia recondita f. sp. tritici, preventative (percent disease control compared to untreated)
How it was run: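 Wheat leaf segments (cv. Kanzler) on agar were sprayed with formulated compound, then inoculated with spores 1 day later. Segments were incubated at 19 °C, 75% rh with 12 h light/dark. Percent disease control versus untreated was scored 7–9 days after application.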

[7] = system: Magnaporthe grisea (Pyricularia oryzae); assay: whole plant or invertebrate; assay type: in vivo; details: foliar, read-out: control of Magnaporthe grisea (percent disease control compared to untreated)
[8] = system: Mycosphaerella graminicola (Septoria tritici); assay: Mycosphaerella graminicola (Septoria tritici) / liquid culture (Septoria blotch); assay type: cell-based; details: Zymoseptoria tritici, PDB potato dextrose broth, 24° C., 4-5 days after application, read-out: control of Mycosphaerella graminicola (inhibition of growth, photometric)
How it was run: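 Conidia from cryogenic storage were mixed into potato dextrose broth and added to test compound in DMSO. Plates were incubated at 24° C, and growth inhibition was read photometrically 4-5 days after application.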

[9] = system: Pyrenophora teres; assay: Pyrenophora teres / barley / leaf disc preventative (net blotch); assay type: in vivo; details: foliar, barley leaf segments cv. Hasso, inoculated 2 days after application, assessed 5-7 days after application, read-out: control of Pyrenophora teres (disease control compared to untreated)
How it was run: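 Barley cv. Hasso leaf discs on agar were sprayed with diluted formulated compound, then inoculated with spore suspension 2 days later. Incubation at 20 °C, 65% rh, 12 h light/dark; disease control versus untreated assessed 5-7 days after application.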

[10] = system: Botryotinia fuckeliana (Botrytis cinerea); assay: Botryotinia fuckeliana (Botrytis cinerea) / liquid culture (gray mould); assay type: cell-based; details: Vogels broth, 24° C., 3-4 days after application, read-out: control of Botryotinia fuckeliana (inhibition of growth, photometric)
Protocol: Example B2: Botryotinia fuckeliana (Botrytis cinerea)/Liquid Culture (Gray Mould) Conidia of the fungus from cryogenic storage are directly mixed into nutrient broth (Vogels broth). After placing a (DMSO) solution of test compound into a microtiter plate (96-well format), the nutrient broth containing the fungal spores is added. The test plates are incubated at 24° C. and the inhibition of growth is determined photometrically 3-4 days after application. […] […]-190.

[11] = system: Phaeosphaeria nodorum (Septoria nodorum); assay: Phaeosphaeria nodorum (Septoria nodorum) / wheat / leaf disc preventative (glume blotch); assay type: in vivo; details: Parastagonospora nodorum, foliar, wheat leaf segments cv. Kanzler, inoculated 2 days after application, assessed 5-7 days after application, read-out: control of Phaeosphaeria nodorum (percent disease control compared to untreated)
How it was run: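 Wheat cv. Kanzler leaf discs on agar were sprayed with formulated compound diluted in water and inoculated with spores 2 days later. Discs were kept at 20° C, 75% rh, 12 h light/dark; percent disease control versus untreated was scored 5-7 days after application.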

[12] = system: Mycosphaerella arachidis (Cercospora arachidicola); assay: Mycosphaerella arachidis (Cercospora arachidicola) / liquid culture (early leaf spot); assay type: cell-based; details: PDB potato dextrose broth, 24° C., 4-5 days after application, read-out: control of Mycosphaerella arachidis (inhibition of growth, photometric)
How it was run: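 Conidia from cryogenic storage suspended in potato dextrose broth and added to compound in DMSO. Incubation at 24° C; growth inhibition read photometrically 4-5 days after application.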

[13] = system: Sclerotinia sclerotiorum; assay: Sclerotinia sclerotiorum / liquid culture (cottony rot); assay type: cell-based; details: PDB potato dextrose broth, mycelia fragments, 24° C., 3-4 days after application, read-out: control of Sclerotinia sclerotiorum (inhibition of growth, photometric)
Protocol: Example B14: Sclerotinia sclerotiorum/Liquid Culture (Cottony Rot) Mycelia fragments of a newly grown liquid culture of the fungus are directly mixed into nutrient broth (PDB potato dextrose broth). After placing a (DMSO) solution of test compound into a microtiter plate (96-well format) the nutrient broth containing the fungal material is added. The test plates are incubated at 24° C. and the inhibition of growth is determined photometrically 3-4 days after application.

COc1ccc(Nc2cc(F)nc(F)c2)nc1C(=O)NC(C)(C)C [Compound P-91, N-tert-butyl-6-[(2,6-difluoro-4-pyridyl)amino]-3-methoxy-pyridine-2-carboxamide]
≥ 80%: pest or weed control at 200 ppm [1] | inhibition at 20 ppm [2] | pest or weed control at 200 ppm [3] | inhibition at 20 ppm [4] | pest or weed control at 200 ppm [5] | pest or weed control at 200 ppm [6] | pest or weed control at 200 ppm [7] | inhibition at 20 ppm [8]

COc1ccc(Nc2cc(F)nc(F)c2)nc1C(=O)NC1(C)CCC1 [Compound P-127, 6-[(2,6-difluoro-4-pyridyl)amino]-3-methoxy-N-(1-methylcyclobutyl)pyridine-2-carboxamide]
≥ 80%: pest or weed control at 200 ppm [1] | inhibition at 20 ppm [2] | pest or weed control at 200 ppm [3] | inhibition at 20 ppm [4] | pest or weed control at 200 ppm [5] | pest or weed control at 200 ppm [6] | pest or weed control at 200 ppm [7] | pest or weed control at 200 ppm [9] | inhibition at 20 ppm [8]

COc1ccc(Nc2cccc(F)c2)nc1C(=O)NCC(C)(C)C [Compound P-139, N-(2,2-dimethylpropyl)-6-(3-fluoroanilino)-3-methoxy-pyridine-2-carboxamide]
≥ 80%: pest or weed control at 200 ppm [1] | inhibition at 20 ppm [10] | inhibition at 20 ppm [2] | pest or weed control at 200 ppm [3] | pest or weed control at 200 ppm [11] | inhibition at 20 ppm [4] | inhibition at 20 ppm [12] | pest or weed control at 200 ppm [6] | pest or weed control at 200 ppm [7] | pest or weed control at 200 ppm [9] | inhibition at 20 ppm [13] | inhibition at 20 ppm [8]

COc1ccc(Nc2cc(F)c(F)c(F)c2)nc1C(=O)NCC(C)(C)C [Compound P-145, N-(2,2-dimethylpropyl)-3-methoxy-6-(3,4,5-trifluoroanilino)pyridine-2-carboxamide]
≥ 80%: pest or weed control at 200 ppm [1] | inhibition at 20 ppm [10] | inhibition at 20 ppm [2] | pest or weed control at 200 ppm [3] | pest or weed control at 200 ppm [11] | inhibition at 20 ppm [4] | inhibition at 20 ppm [12] | pest or weed control at 200 ppm [6] | pest or weed control at 200 ppm [7] | pest or weed control at 200 ppm [9] | inhibition at 20 ppm [13] | inhibition at 20 ppm [8]

COc1ccc(Nc2cc(F)cc(Cl)c2)nc1C(=O)NC(C)(C)C [Compound P-152, N-tert-butyl-6-(3-chloro-5-fluoro-anilino)-3-methoxy-pyridine-2-carboxamide]
≥ 80%: pest or weed control at 200 ppm [1] | inhibition at 20 ppm [10] | inhibition at 20 ppm [2] | pest or weed control at 200 ppm [3] | pest or weed control at 200 ppm [11] | inhibition at 20 ppm [4] | inhibition at 20 ppm [12] | pest or weed control at 200 ppm [6] | pest or weed control at 200 ppm [7] | pest or weed control at 200 ppm [9] | inhibition at 20 ppm [13] | inhibition at 20 ppm [8]

COc1ccc(Nc2ccnc(F)c2)nc1C(=O)NC(C)(C)C [Compound P-156, N-tert-butyl-6-[(2-fluoro-4-pyridyl)amino]-3-methoxy-pyridine-2-carboxamide]
≥ 80%: inhibition at 20 ppm [2] | pest or weed control at 200 ppm [3] | pest or weed control at 200 ppm [5] | pest or weed control at 200 ppm [6] | pest or weed control at 200 ppm [7]

COc1ccc(Nc2cc(F)nc(F)c2)nc1C(=O)NC1(C(C)(C)C)CCC1 [Compound P-185, N-(1-tert-butylcyclobutyl)-6-[(2,6-difluoro-4-pyridyl)amino]-3-methoxy-pyridine-2-carboxamide]
≥ 80%: pest or weed control at 200 ppm [1] | pest or weed control at 200 ppm [3] | inhibition at 20 ppm [4] | pest or weed control at 200 ppm [5] | pest or weed control at 200 ppm [6] | pest or weed control at 200 ppm [7] | pest or weed control at 200 ppm [9] | inhibition at 20 ppm [8]
